Assay results as given in patent publication US20250154525A1, “PLANT VIRUS MOVEMENT PROTEINS AND METHODS OF USING SAME” (Molecular Transfer, Inc., priority 2016, published 2025).

Legend:
Test in all cases: GFP plasmid transfection with DOTMA/DOPE plus plant virus movement protein derived peptides (Example 2)
Format in all cases: cell-based
[1] = test system: HeLa Cells; details: 1-6 μL of transfection reagents
Experimental: (§1) Cells were plated to so that on the day of transfection the cells were 70% confluent in 96 well tissue culture plates. A DOMTA/DOPE Lipid solution (1:1 molar ratio) at 2 mg/mL in water were mixed with an equal volume of plant virus movement protein derived peptides that had the nucleic acid binding moiety RRRRRRRRRRRR (SEQ ID NO:109) or KKKKKKKKKKKKKKKK (SEQ ID NO: 102) covalently linked to the N-terminus, or C-terminus of each peptide during peptide synthesis. Peptides were at 2 mg/mL in water. The DOTMA/DOPE and the plant virus movement peptide solution the was diluted 1 to 1 (v/v) in water. DOMTA/DOPE/PEPTIDE solutions were added to 0.1 mL of a plasmid DNA solution (EF1Alpha eGFP plasmid) at 10 μg/mL in OptiMEM.
(§2) All solutions were at room temperature. A volume of 0.2 mL of a 10 μg/mL solution of DNA was aliquoted into each well of a non-tissue cultured treated plate. 1-6 μL of transfection reagents were added to DNA solutions respectively. The transfection reagent and DNA solution was mixed by pipetting up and down twice. Transfection complexes were formed for 10 minutes. After 10 minutes, 0.01 or 0.02 mL of the transfection complex was added to cells. HuVEC, HeLa, human adult keratinocytes, human primary adult fibroblast, and A549 cells all respectively received 0.01 mL of the transfection complex. Human skeletal muscle cells, mouse C2C12 cells, and Jurkat, cells received 0.02 mL of the transfection complex. Cells were incubated for 42 hours at 37° C. at 5% CO2. Plates were read on a fluorescent plate reader. Cells were also examined visually under a microscope to assess the extent of transfection (in terms of the percent of cells transfected) with a fluorescent microscope. Other modes of analysis, for example quantification with B-galactosidase or luciferase reports plasmids can also be used.

[2] = test system: HuVec Cells; details: 42 hours
Experimental: as §1, §2

[3] = test system: Human Primary Fibroblast Cells; details: 42 hours
Experimental: as §1, §2

[4] = value column 1 of 6, head not given, 1 µL transfection reagent
[5] = value column 3 of 6, head not given, 3 µL transfection reagent
[6] = value column 4 of 6, head not given, 4 µL transfection reagent

Substance: 542 (KKKKKKKKKKKKKKKKGKWERKPIRCAS) [compound 542]
- Relative Fluorescence of Transfection of Hela Cells ([1]; 2 µL transfection reagent): 32901
- Relative Fluorescence of Transfection of Hela Cells ([1]; 5 µL transfection reagent): 35631
- Relative Fluorescence of Transfection of Hela Cells [1, 4]: 9010
- Relative Fluorescence of Transfection of Hela Cells [1, 5]: 47293
- Relative Fluorescence of Transfection of Hela Cells [1, 6]: 42152
- Relative Fluorescence of Transfection of HuVEC Cells ([2]; Transfection Agent 1 μl): 24827 Rf
- Relative Fluorescence of Transfection of HuVEC Cells ([2]; Transfection Agent 1.5 μl): 33896 Rf
- Relative Fluorescence of Transfection of HuVEC Cells ([2]; Transfection Agent 2 μl): 42546 Rf
- Relative Fluorescence of Transfection of HuVEC Cells ([2]; Transfection Agent 3 μl): 43231 Rf
- Relative Fluorescence of Transfection of HuVEC Cells ([2]; Transfection Agent 4 μl): 35294 Rf
- Relative Fluorescence of Transfection of HuVEC Cells ([2]; Transfection Agent 6 μl): 29326 Rf
- Relative Fluorescence of Transfection of Human Primary Fibroblast Cells ([3]; Transfection Agent 1 μl): 30818 Rf
- Relative Fluorescence of Transfection of Human Primary Fibroblast Cells ([3]; Transfection Agent 1.5 μl): 43609 Rf
- Relative Fluorescence of Transfection of Human Primary Fibroblast Cells ([3]; Transfection Agent 2 μl): 46966 Rf
- Relative Fluorescence of Transfection of Human Primary Fibroblast Cells ([3]; Transfection Agent 3 μl): 36343 Rf
- Relative Fluorescence of Transfection of Human Primary Fibroblast Cells ([3]; Transfection Agent 4 μl): 33706 Rf
- Relative Fluorescence of Transfection of Human Primary Fibroblast Cells ([3]; Transfection Agent 6 μl): 31787 Rf

Substance: 543 (RRRRRRRRRRRRVDFSHVDYGKWERKPIRCASMSRLGLRG) [compound 543]
- Relative Fluorescence of Transfection of Hela Cells ([1]; 2 µL transfection reagent): 42502
- Relative Fluorescence of Transfection of Hela Cells ([1]; 5 µL transfection reagent): 13793
- Relative Fluorescence of Transfection of Hela Cells [1, 4]: 12174
- Relative Fluorescence of Transfection of Hela Cells [1, 5]: 38779
- Relative Fluorescence of Transfection of Hela Cells [1, 6]: 28451
- Relative Fluorescence of Transfection of HuVEC Cells ([2]; Transfection Agent 1 μl): 26622 Rf
- Relative Fluorescence of Transfection of HuVEC Cells ([2]; Transfection Agent 1.5 μl): 36742 Rf
- Relative Fluorescence of Transfection of HuVEC Cells ([2]; Transfection Agent 2 μl): 42802 Rf
- Relative Fluorescence of Transfection of HuVEC Cells ([2]; Transfection Agent 3 μl): 40584 Rf
- Relative Fluorescence of Transfection of HuVEC Cells ([2]; Transfection Agent 4 μl): 32754 Rf
- Relative Fluorescence of Transfection of HuVEC Cells ([2]; Transfection Agent 6 μl): 25492 Rf
- Relative Fluorescence of Transfection of Human Primary Fibroblast Cells ([3]; Transfection Agent 1 μl): 30416 Rf
- Relative Fluorescence of Transfection of Human Primary Fibroblast Cells ([3]; Transfection Agent 1.5 μl): 45401 Rf
- Relative Fluorescence of Transfection of Human Primary Fibroblast Cells ([3]; Transfection Agent 2 μl): 39786 Rf
- Relative Fluorescence of Transfection of Human Primary Fibroblast Cells ([3]; Transfection Agent 3 μl): 33091 Rf
- Relative Fluorescence of Transfection of Human Primary Fibroblast Cells ([3]; Transfection Agent 4 μl): 28648 Rf
- Relative Fluorescence of Transfection of Human Primary Fibroblast Cells ([3]; Transfection Agent 6 μl): 28698 Rf

Substance: 544 (GVKRSYGAARGDDRRRPNVVAPYKAWRRRRRRRRRRRR) [compound 544]
- Relative Fluorescence of Transfection of Hela Cells ([1]; 2 µL transfection reagent): 19151
- Relative Fluorescence of Transfection of Hela Cells ([1]; 5 µL transfection reagent): 12759
- Relative Fluorescence of Transfection of Hela Cells [1, 4]: 10683
- Relative Fluorescence of Transfection of Hela Cells [1, 5]: 19877
- Relative Fluorescence of Transfection of Hela Cells [1, 6]: 16908
- Relative Fluorescence of Transfection of HuVEC Cells ([2]; Transfection Agent 1 μl): 25788 Rf
- Relative Fluorescence of Transfection of HuVEC Cells ([2]; Transfection Agent 1.5 μl): 28622 Rf
- Relative Fluorescence of Transfection of HuVEC Cells ([2]; Transfection Agent 2 μl): 31245 Rf
- Relative Fluorescence of Transfection of HuVEC Cells ([2]; Transfection Agent 3 μl): 34718 Rf
- Relative Fluorescence of Transfection of HuVEC Cells ([2]; Transfection Agent 4 μl): 31159 Rf
- Relative Fluorescence of Transfection of HuVEC Cells ([2]; Transfection Agent 6 μl): 28639 Rf
- Relative Fluorescence of Transfection of Human Primary Fibroblast Cells ([3]; Transfection Agent 1 μl): 31368 Rf
- Relative Fluorescence of Transfection of Human Primary Fibroblast Cells ([3]; Transfection Agent 1.5 μl): 39311 Rf
- Relative Fluorescence of Transfection of Human Primary Fibroblast Cells ([3]; Transfection Agent 2 μl): 37634 Rf
- Relative Fluorescence of Transfection of Human Primary Fibroblast Cells ([3]; Transfection Agent 3 μl): 32892 Rf
- Relative Fluorescence of Transfection of Human Primary Fibroblast Cells ([3]; Transfection Agent 4 μl): 31428 Rf
- Relative Fluorescence of Transfection of Human Primary Fibroblast Cells ([3]; Transfection Agent 6 μl): 28367 Rf

Substance: 545 (KSVPNRTRTYIKLKRLRFKGAPYKAWRRRRRRRRRRRR) [compound 545]
- Relative Fluorescence of Transfection of Hela Cells ([1]; 2 µL transfection reagent): 28529
- Relative Fluorescence of Transfection of Hela Cells ([1]; 5 µL transfection reagent): 13009
- Relative Fluorescence of Transfection of Hela Cells [1, 4]: 11056
- Relative Fluorescence of Transfection of Hela Cells [1, 5]: 28943
- Relative Fluorescence of Transfection of Hela Cells [1, 6]: 14693
- Relative Fluorescence of Transfection of HuVEC Cells ([2]; Transfection Agent 1 μl): 26545 Rf
- Relative Fluorescence of Transfection of HuVEC Cells ([2]; Transfection Agent 1.5 μl): 36649 Rf
- Relative Fluorescence of Transfection of HuVEC Cells ([2]; Transfection Agent 2 μl): 46890 Rf
- Relative Fluorescence of Transfection of HuVEC Cells ([2]; Transfection Agent 3 μl): 34047 Rf
- Relative Fluorescence of Transfection of HuVEC Cells ([2]; Transfection Agent 4 μl): 30893 Rf
- Relative Fluorescence of Transfection of HuVEC Cells ([2]; Transfection Agent 6 μl): 27133 Rf
- Relative Fluorescence of Transfection of Human Primary Fibroblast Cells ([3]; Transfection Agent 1 μl): 34309 Rf
- Relative Fluorescence of Transfection of Human Primary Fibroblast Cells ([3]; Transfection Agent 1.5 μl): 48184 Rf
- Relative Fluorescence of Transfection of Human Primary Fibroblast Cells ([3]; Transfection Agent 2 μl): 37497 Rf
- Relative Fluorescence of Transfection of Human Primary Fibroblast Cells ([3]; Transfection Agent 3 μl): 29067 Rf
- Relative Fluorescence of Transfection of Human Primary Fibroblast Cells ([3]; Transfection Agent 4 μl): 28928 Rf
- Relative Fluorescence of Transfection of Human Primary Fibroblast Cells ([3]; Transfection Agent 6 μl): 29256 Rf

Substance: 546 (RTGVKRSYGAARGDDRRRPNVVRRRRRRRRRRRR) [compound 546]
- Relative Fluorescence of Transfection of Hela Cells ([1]; 2 µL transfection reagent): 15022
- Relative Fluorescence of Transfection of Hela Cells ([1]; 5 µL transfection reagent): 8117
- Relative Fluorescence of Transfection of Hela Cells [1, 4]: 15190
- Relative Fluorescence of Transfection of Hela Cells [1, 5]: 12772
- Relative Fluorescence of Transfection of Hela Cells [1, 6]: 11535
- Relative Fluorescence of Transfection of HuVEC Cells ([2]; Transfection Agent 1 μl): 25990 Rf
- Relative Fluorescence of Transfection of HuVEC Cells ([2]; Transfection Agent 1.5 μl): 32762 Rf
- Relative Fluorescence of Transfection of HuVEC Cells ([2]; Transfection Agent 2 μl): 37899 Rf
- Relative Fluorescence of Transfection of HuVEC Cells ([2]; Transfection Agent 3 μl): 35528 Rf
- Relative Fluorescence of Transfection of HuVEC Cells ([2]; Transfection Agent 4 μl): 31614 Rf
- Relative Fluorescence of Transfection of HuVEC Cells ([2]; Transfection Agent 6 μl): 27690 Rf
- Relative Fluorescence of Transfection of Human Primary Fibroblast Cells ([3]; Transfection Agent 1 μl): 31980 Rf
- Relative Fluorescence of Transfection of Human Primary Fibroblast Cells ([3]; Transfection Agent 1.5 μl): 39259 Rf
- Relative Fluorescence of Transfection of Human Primary Fibroblast Cells ([3]; Transfection Agent 2 μl): 41747 Rf
- Relative Fluorescence of Transfection of Human Primary Fibroblast Cells ([3]; Transfection Agent 3 μl): 35020 Rf
- Relative Fluorescence of Transfection of Human Primary Fibroblast Cells ([3]; Transfection Agent 4 μl): 32220 Rf
- Relative Fluorescence of Transfection of Human Primary Fibroblast Cells ([3]; Transfection Agent 6 μl): 29476 Rf

Substance: 547 (SYVKTVPNRTRTYIKGGGGGRRRRRRRRRRRR) [compound 547]
- Relative Fluorescence of Transfection of Hela Cells ([1]; 2 µL transfection reagent): 9491
- Relative Fluorescence of Transfection of Hela Cells ([1]; 5 µL transfection reagent): 8829
- Relative Fluorescence of Transfection of Hela Cells [1, 4]: 5899
- Relative Fluorescence of Transfection of Hela Cells [1, 5]: 10275
- Relative Fluorescence of Transfection of Hela Cells [1, 6]: 11241
- Relative Fluorescence of Transfection of HuVEC Cells ([2]; Transfection Agent 1 μl): 24554 Rf
- Relative Fluorescence of Transfection of HuVEC Cells ([2]; Transfection Agent 1.5 μl): 26172 Rf
- Relative Fluorescence of Transfection of HuVEC Cells ([2]; Transfection Agent 2 μl): 28255 Rf
- Relative Fluorescence of Transfection of HuVEC Cells ([2]; Transfection Agent 3 μl): 32494 Rf
- Relative Fluorescence of Transfection of HuVEC Cells ([2]; Transfection Agent 4 μl): 31180 Rf
- Relative Fluorescence of Transfection of HuVEC Cells ([2]; Transfection Agent 6 μl): 26775 Rf
- Relative Fluorescence of Transfection of Human Primary Fibroblast Cells ([3]; Transfection Agent 1 μl): 29141 Rf
- Relative Fluorescence of Transfection of Human Primary Fibroblast Cells ([3]; Transfection Agent 1.5 μl): 33704 Rf
- Relative Fluorescence of Transfection of Human Primary Fibroblast Cells ([3]; Transfection Agent 2 μl): 35175 Rf
- Relative Fluorescence of Transfection of Human Primary Fibroblast Cells ([3]; Transfection Agent 3 μl): 35563 Rf
- Relative Fluorescence of Transfection of Human Primary Fibroblast Cells ([3]; Transfection Agent 4 μl): 33951 Rf
- Relative Fluorescence of Transfection of Human Primary Fibroblast Cells ([3]; Transfection Agent 6 μl): 30539 Rf
